“And” between values parts separate entries of the source, which are not always exact repeats. Equal entries are not always repeated. ± gives the expanded uncertainty stated by the source.
Conditions: Liquid, Vibrating tube method

**Q.** What does the source list for CCCOC(=O)CCCCC(=O)OCCC [dipropyl hexanedioate]?
**A.** mass density (293.15 K, 100 kPa): 979.3 ± 3.9 kg/m3; mass density (293.15 K, 520 kPa): 979.7 ± 3.9 kg/m3; mass density (293.15 K, 1040 kPa): 980 ± 3.9 kg/m3; mass density (293.15 K, 2530 kPa): 981 ± 3.9 kg/m3; mass density (293.15 K, 5020 kPa): 982.5 ± 3.9 kg/m3; mass density (293.15 K, 7510 kPa): 984.1 ± 3.9 kg/m3; mass density (293.15 K, 7530 kPa): 984.2 ± 3.9 kg/m3; mass density (293.15 K, 10010 kPa): 985.7 ± 4 kg/m3; mass density (293.15 K, 15050 kPa): 988.9 ± 4 kg/m3; mass density (293.15 K, 20010 kPa): 991.8 ± 4 kg/m3; mass density (293.15 K, 30030 kPa): 997.7 ± 4 kg/m3; mass density (293.15 K, 39800 kPa): 1003.1 ± 4 kg/m3; mass density (293.15 K, 50070 kPa): 1008.4 ± 4 kg/m3; mass density (293.15 K, 65000 kPa): 1015.7 ± 4.1 kg/m3; mass density (303.15 K, 100 kPa): 970.4 ± 3.9 kg/m3 and 970.3 ± 3.9 kg/m3; mass density (303.15 K, 500 kPa): 970.7 ± 3.9 kg/m3; mass density (303.15 K, 510 kPa): 970.7 ± 3.9 kg/m3; mass density (303.15 K, 1010 kPa): 971.1 ± 3.9 kg/m3; mass density (303.15 K, 2510 kPa): 972.1 ± 3.9 kg/m3; mass density (303.15 K, 5000 kPa): 973.8 ± 3.9 kg/m3; mass density (303.15 K, 5030 kPa): 973.8 ± 3.9 kg/m3; mass density (303.15 K, 7510 kPa): 975.5 ± 3.9 kg/m3; mass density (303.15 K, 10010 kPa): 977.1 ± 3.9 kg/m3; mass density (303.15 K, 10020 kPa): 977.1 ± 3.9 kg/m3; mass density (303.15 K, 15010 kPa): 980.4 ± 3.9 kg/m3; mass density (303.15 K, 20000 kPa): 983.5 ± 3.9 kg/m3; mass density (303.15 K, 30000 kPa): 989.6 ± 4 kg/m3; mass density (303.15 K, 30010 kPa): 989.6 ± 4 kg/m3; mass density (303.15 K, 39800 kPa): 995.2 ± 4 kg/m3; mass density (303.15 K, 50010 kPa): 1000.7 ± 4 kg/m3; mass density (303.15 K, 64990 kPa): 1008.3 ± 4 kg/m3; mass density (303.15 K, 65010 kPa): 1008.3 ± 4 kg/m3; mass density (313.15 K, 100 kPa): 961.5 ± 3.9 kg/m3; mass density (313.15 K, 500 kPa): 961.8 ± 3.9 kg/m3; mass density (313.15 K, 1010 kPa): 962.2 ± 3.9 kg/m3; mass density (313.15 K, 2510 kPa): 963.3 ± 3.9 kg/m3; mass density (313.15 K, 5040 kPa): 965.1 ± 3.9 kg/m3; mass density (313.15 K, 7510 kPa): 966.8 ± 3.9 kg/m3; mass density (313.15 K, 10010 kPa): 968.5 ± 3.9 kg/m3; mass density (313.15 K, 15000 kPa): 971.9 ± 3.9 kg/m3; mass density (313.15 K, 19980 kPa): 975.2 ± 3.9 kg/m3; mass density (313.15 K, 30000 kPa): 981.6 ± 3.9 kg/m3; mass density (313.15 K, 39800 kPa): 987.4 ± 4 kg/m3; mass density (313.15 K, 39810 kPa): 987.4 ± 4 kg/m3; mass density (313.15 K, 50060 kPa): 993.2 ± 4 kg/m3; mass density (313.15 K, 65000 kPa): 1001 ± 4 kg/m3; mass density (323.15 K, 100 kPa): 952.4 ± 3.8 kg/m3; mass density (323.15 K, 500 kPa): 952.8 ± 3.8 kg/m3; mass density (323.15 K, 1010 kPa): 953.2 ± 3.8 kg/m3; mass density (323.15 K, 2530 kPa): 954.3 ± 3.8 kg/m3; mass density (323.15 K, 5020 kPa): 956.2 ± 3.8 kg/m3; mass density (323.15 K, 7510 kPa): 958 ± 3.8 kg/m3; mass density (323.15 K, 7550 kPa): 958.1 ± 3.8 kg/m3; mass density (323.15 K, 10000 kPa): 959.9 ± 3.8 kg/m3; mass density (323.15 K, 15030 kPa): 963.4 ± 3.9 kg/m3; mass density (323.15 K, 20010 kPa): 966.9 ± 3.9 kg/m3; mass density (323.15 K, 30010 kPa): 973.5 ± 3.9 kg/m3; mass density (323.15 K, 39820 kPa): 979.5 ± 3.9 kg/m3; mass density (323.15 K, 50020 kPa): 985.5 ± 4 kg/m3; mass density (323.15 K, 64990 kPa): 993.7 ± 4 kg/m3; mass density (333.15 K, 100 kPa): 943.5 ± 3.8 kg/m3; mass density (333.15 K, 500 kPa): 943.9 ± 3.8 kg/m3; mass density (333.15 K, 1020 kPa): 944.3 ± 3.8 kg/m3; mass density (333.15 K, 2520 kPa): 945.5 ± 3.8 kg/m3; mass density (333.15 K, 5010 kPa): 947.5 ± 3.8 kg/m3; mass density (333.15 K, 7510 kPa): 949.4 ± 3.8 kg/m3; mass density (333.15 K, 10000 kPa): 951.3 ± 3.8 kg/m3; mass density (333.15 K, 15000 kPa): 955.1 ± 3.8 kg/m3; mass density (333.15 K, 20000 kPa): 958.7 ± 3.8 kg/m3; mass density (333.15 K, 30020 kPa): 965.6 ± 3.9 kg/m3; mass density (333.15 K, 39790 kPa): 971.9 ± 3.9 kg/m3; mass density (333.15 K, 50050 kPa): 978.1 ± 3.9 kg/m3; mass density (333.15 K, 65000 kPa): 986.5 ± 4 kg/m3; mass density (343.15 K, 100 kPa): 934.6 ± 3.7 kg/m3; mass density (343.15 K, 520 kPa): 935 ± 3.8 kg/m3; mass density (343.15 K, 1040 kPa): 935.5 ± 3.8 kg/m3; mass density (343.15 K, 2540 kPa): 936.7 ± 3.8 kg/m3; mass density (343.15 K, 5020 kPa): 938.8 ± 3.8 kg/m3; mass density (343.15 K, 7510 kPa): 940.8 ± 3.8 kg/m3; mass density (343.15 K, 7520 kPa): 940.8 ± 3.8 kg/m3; mass density (343.15 K, 10020 kPa): 942.8 ± 3.8 kg/m3; mass density (343.15 K, 15000 kPa): 946.7 ± 3.8 kg/m3; mass density (343.15 K, 20030 kPa): 950.6 ± 3.8 kg/m3; mass density (343.15 K, 29580 kPa): 957.4 ± 3.8 kg/m3; mass density (343.15 K, 39860 kPa): 964.3 ± 3.9 kg/m3; mass density (343.15 K, 50020 kPa): 970.7 ± 3.9 kg/m3; mass density (343.15 K, 65000 kPa): 979.4 ± 3.9 kg/m3; mass density (353.15 K, 100 kPa): 925.7 ± 3.7 kg/m3; mass density (353.15 K, 510 kPa): 926.1 ± 3.7 kg/m3; mass density (353.15 K, 1020 kPa): 926.5 ± 3.7 kg/m3; mass density (353.15 K, 2530 kPa): 927.9 ± 3.7 kg/m3; mass density (353.15 K, 5020 kPa): 930.1 ± 3.7 kg/m3; mass density (353.15 K, 7510 kPa): 932.2 ± 3.7 kg/m3; mass density (353.15 K, 7530 kPa): 932.2 ± 3.7 kg/m3; mass density (353.15 K, 10000 kPa): 934.3 ± 3.7 kg/m3; mass density (353.15 K, 14550 kPa): 938 ± 3.8 kg/m3; mass density (353.15 K, 20020 kPa): 942.3 ± 3.8 kg/m3; mass density (353.15 K, 30010 kPa): 949.8 ± 3.8 kg/m3; mass density (353.15 K, 39800 kPa): 956.7 ± 3.8 kg/m3; mass density (353.15 K, 49990 kPa): 963.4 ± 3.9 kg/m3; mass density (353.15 K, 64990 kPa): 972.4 ± 3.9 kg/m3; mass density (363.15 K, 100 kPa): 916.7 ± 3.7 kg/m3; mass density (363.15 K, 500 kPa): 917.2 ± 3.7 kg/m3; mass density (363.15 K, 980 kPa): 917.6 ± 3.7 kg/m3; mass density (363.15 K, 2520 kPa): 919.1 ± 3.7 kg/m3; mass density (363.15 K, 5000 kPa): 921.3 ± 3.7 kg/m3; mass density (363.15 K, 7480 kPa): 923.6 ± 3.7 kg/m3; mass density (363.15 K, 10020 kPa): 925.8 ± 3.7 kg/m3; mass density (363.15 K, 15020 kPa): 930.1 ± 3.7 kg/m3; mass density (363.15 K, 20020 kPa): 934.2 ± 3.7 kg/m3; mass density (363.15 K, 30020 kPa): 942 ± 3.8 kg/m3; mass density (363.15 K, 39810 kPa): 949.1 ± 3.8 kg/m3; mass density (363.15 K, 50050 kPa): 956.1 ± 3.8 kg/m3; mass density (363.15 K, 64970 kPa): 965.4 ± 3.9 kg/m3

Source: the NIST ThermoML archive (doi:10.1016/j.fluid.2014.04.018)
